In US8759520B2, “Compounds for treating cancer” (Boehringer Ingelheim International GmbH, priority 2008, dated 2014) one finds IC50 data, which are given here for 30 compounds.

Some results are limits rather than exact numbers.

Sequence of Bcl-2 (P10415 whole entry, species assumed, the tested form may be a part): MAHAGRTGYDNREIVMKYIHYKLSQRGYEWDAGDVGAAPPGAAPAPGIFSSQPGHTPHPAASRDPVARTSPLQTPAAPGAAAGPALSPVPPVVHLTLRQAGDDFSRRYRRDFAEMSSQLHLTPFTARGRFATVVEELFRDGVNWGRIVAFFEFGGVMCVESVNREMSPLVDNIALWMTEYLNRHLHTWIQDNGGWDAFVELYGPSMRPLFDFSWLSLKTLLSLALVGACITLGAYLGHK

This experiment addresses Bcl-2 (Homo sapiens, UniProt P10415). The experiment can be described thus: Homogeneous HTS assay for inhibitors of the Bcl-2 : Bak (72-87) BH3 domain interaction, fluorescence polarisation (2D-FIDA). It counts as binding. The note with it: fluorescence polarisation, fluorescent labelled Bak BH3 domain derived peptide; read-out: IC50 [μM] Bcl-2. The text has this: FIG. 1 is a schematic drawing of the Bcl-2: Bak (72-87) interaction assay based on fluorescence polarisation.
The homogeneous HTS assay for inhibitors of the Bcl-2 is shown schematically in FIG. 1. BH3 domain interaction is based on fluorescence polarisation. The inherent rotational diffusion of the Bak BH3 domain derived fluorescent labelled peptide decreases upon binding to Bc1-2. This shift in rotational diffusion is quantitated using the two-dimensional fluorescence intensity distribution analysis (2D-FIDA; Kask et al. 2000, Biophys. J. 78: 1703-1713).
Two different BH3 domain derived peptide ligands were synthesised and subsequently fluorescently labelled: • a 16mer peptide covering amino acids 72-87 of the Bak protein; this peptide had been used by Wang and co-workers and Holinger and coworkers in their Bcl-2 protein binding studies; Wang and co-workers reported an equilibrium binding constant KD of ˜0.2 μM to Bcl-2 protein; • peptide sequence: GQVGRQLAIIGDDINR—N (Wang et al. 2002, Proc. Natl. Acad. Sci. U.S.A. 97: 7124-7129; Holinger et al. 1999, J. Biol. Chem. 274: 13298-13304).
On the technique in general: Polarisation of emitted light reports the rotation of a fluorescent probe.
As a reminder, the IC50 is the concentration that gives 50% inhibition. With `N=c1n(Cc2ccccc2)c2ccccc2n1Cc1ccccn1` [Compound 1, 1-Benzyl-3-pyridin-2-ylmethyl-1,3-dihydro-benzoimidazol-2-ylideneamine], the IC50 is 11 to 100 µM.

Regarding `N=c1n(Cc2ccccc2)c2ccccc2n1Cc1cccnc1` [Compound 2, 1-Benzyl-3-pyridin-3-ylmethyl-1,3-dihydro-benzoimidazol-2-ylideneamine], the IC50 was > 100 µM.

Consider `N=c1n(Cc2ccccc2)c2ccccc2n1Cc1ccncc1` [Compound 3, 1-Benzyl-3-pyridin-4-ylmethyl-1,3-dihydro-benzoimidazol-2-ylideneamine], for which the IC50 was > 100 µM.

Regarding `N=c1n(Cc2ccccc2)c2ccccc2n1CC1CCOCC1` [Compound 4, 1-Benzyl-3-(tetrahydro-pyran-4-ylmethyl)-1,3-dihydro-benzoimidazol-2-ylideneamine], the IC50 was > 100 µM.

Regarding `N=c1n(CCCOc2ccc(F)cc2)c2ccccc2n1Cc1ccc(Br)cc1` [Compound 5, 1-(4-Bromo-benzyl)-3-[3-(4-fluoro-phenoxy)-propyl]-1,3-dihydro-benzoimidazol-2-ylideneamine], the IC50 was < 10 µM.

As for `N=c1n(CCCOc2ccc(F)cc2)c2ccccc2n1Cc1cccc(Br)c1` [Compound 6, 1-(3-Bromo-benzyl)-3-[3-(4-fluoro-phenoxy)-propyl]-1,3-dihydro-benzoimidazol-2-ylideneamine], the IC50 was 11 to 100 µM.

`N=c1n(CCSc2ccccc2)c2ccccc2n1Cc1ccc(Br)cc1` [Compound 7, 1-(4-Bromo-benzyl)-3-(2-phenylsulfanyl-ethyl)-1,3-dihydro-benzoimidazol-2-ylideneamine]: the IC50 was 11 to 100 µM.

As for `CCOC(=O)Cn1c(=N)n(CCCOc2ccc(F)cc2)c2ccccc21` [Compound 8, {3-[3-(4-Fluoro-phenoxy)-propyl]-2-imino-2,3-dihydro-benzoimidazol-1-yl}-acetic acid ethyl ester], the IC50 lay within 11 to 100 µM.

For the compound `N=c1n(CCCOc2ccc(Cl)cc2)c2ccccc2n1Cc1ccncc1` [Compound 9, 1-[3-(4-Chloro-phenoxy)-propyl]-3-pyridin-4-ylmethyl-1,3-dihydro-benzoimidazol-2-ylideneamine], the IC50 is > 100 µM.

`N=c1n(CCCOc2ccc(F)cc2)c2ccccc2n1Cc1cccc(Cl)c1` [Compound 10, 1-(3-Chloro-benzyl)-3-[3-(4-fluoro-phenoxy)-propyl]-1,3-dihydro-benzoimidazol-2-ylideneamine]: the IC50 was 11 to 100 µM.

With `N=c1n(CCCOc2ccc(F)cc2)c2ccccc2n1Cc1ccc(Cl)c(Cl)c1` [Compound 11, 1-(3,4-Dichloro-benzyl)-3-[3-(4-fluoro-phenoxy)-propyl]-1,3-dihydro-benzoimidazol-2-ylideneamine], the IC50 is 11 to 100 µM.

As to `N=c1n(CCCOc2ccc(Cl)cc2)c2ccccc2n1Cc1ccc(Br)cc1` [Compound 12, 1-(4-Bromo-benzyl)-3-[3-(4-chloro-phenoxy)-propyl]-1,3-dihydro-benzoimidazol-2-ylideneamine], the IC50 is 11 to 100 µM.

With `N=c1n(Cc2ccc(Br)cc2)c2ccccc2n1CC1COc2ccccc2O1` (stereo not drawn) [Compound 13, 1-(4-Bromo-benzyl)-3-(2,3-dihydro-benzo[1,4]dioxin-2-ylmethyl)-1,3-dihydro-benzoimidazol-2-ylideneamine], the IC50 lay in the range of 11 to 100 µM.

With `N=c1n(CCCOc2ccc([N+](=O)[O-])cc2)c2ccccc2n1Cc1ccc(Br)cc1` [Compound 14, 1-(4-Bromo-benzyl)-3-[3-(4-nitro-phenoxy)-propyl]-1,3-dihydro-benzoimidazol-2-ylideneamine], the IC50 lay in the range of 11 to 100 µM.

As for `COC(=O)c1cccc(Cn2c(=N)n(CCCOc3ccc(F)cc3)c3ccccc32)c1` [Compound 15, 3-{3-[3-(4-Fluoro-phenoxy)-propyl]-2-imino-2,3-dihydro-benzoimidazol-1-ylmethyl}-benzoic acid methyl ester], the IC50 was < 10 µM.

Regarding `N=c1n(CCCOc2ccc(F)cc2)c2ccccc2n1Cc1ccc(-c2ccc(F)cc2)cc1` [Compound 16, 1-(4′-Fluoro-biphenyl-4-ylmethyl)-3-[3-(4-fluoro-phenoxy)-propyl]-1,3-dihydro-benzoimidazol-2-ylideneamine], the IC50 lay within 11 to 100 µM.

Consider `Cn1c(=N)n(Cc2ccc(N3CCN(Cc4ccccc4-c4ccccc4)CC3)cc2)c2ccccc21` [Compound 17, 1-[4-(4-Biphenyl-2-ylmethyl-piperazin-1-yl)-benzyl]-3-methyl-1,3-dihydro-benzoimidazol-2-ylideneamine], for which the IC50 lay within 11 to 100 µM.

Turning to `N=c1n(Cc2ccccc2)c2ccccc2n1Cc1ccc(N2CCN(Cc3ccccc3-c3ccccc3)CC2)cc1` [Compound 18, 1-Benzyl-3-[4-(4-biphenyl-2-ylmethyl-piperazin-1-yl)-benzyl]-1,3-dihydro-benzoimidazol-2-ylideneamine], the IC50 was < 10 µM.

`N=c1n(CCCOc2ccc(F)cc2)c2ccccc2n1Cc1ccc(N2CCN(Cc3ccc(Cl)cc3)CC2)cc1` [Compound 19, 1-{4-[4-(4-Chloro-benzyl)-piperazin-1-yl]-benzyl}-3-[3-(4-fluoro-phenoxy)-propyl]-1,3-dihydro-benzoimidazol-2-ylideneamine]: the IC50 lay in the range of 11 to 100 µM.

As to `N=c1n(CCCOc2ccc(F)cc2)c2ccccc2n1Cc1ccc(N2CCN(Cc3ccccc3Cl)CC2)cc1` [Compound 20, 1-{4-[4-(2-Chloro-benzyl)-piperazin-1-yl]-benzyl}-3-[3-(4-fluoro-phenoxy)-propyl]-1,3-dihydro-benzoimidazol-2-ylideneamine], the IC50 was < 10 µM.

In the case of `N=c1n(CCCOc2ccc(F)cc2)c2ccccc2n1Cc1ccc(N2CCN(Cc3cccc(Cl)c3)CC2)cc1` [Compound 21, 1-{4-[4-(3-Chloro-benzyl)-piperazin-1-yl]-benzyl}-3-[3-(4-fluoro-phenoxy)-propyl]-1,3-dihydro-benzoimidazol-2-ylideneamine], the IC50 was < 10 µM.

As to `N=c1n(CCCOc2ccc(F)cc2)c2ccccc2n1Cc1ccc(N2CCN(Cc3ccccc3)CC2)cc1` [Compound 22, 1-[4-(4-Benzyl-piperazin-1-yl)-benzyl]-3-[3-(4-fluoro-phenoxy)-propyl]-1,3-dihydro-benzoimidazol-2-ylideneamine], the IC50 was < 10 µM.

For the compound `N=c1n(CCCOc2ccc(F)cc2)c2ccccc2n1Cc1ccc(N2CCN(Cc3ccccc3-c3ccc(Cl)cc3)CC2)cc1` [Compound 24, 1-{4-[4-(4′-Chloro-biphenyl-2-ylmethyl)-piperazin-1-yl]-benzyl}-3-[3-(4-fluoro-phenoxy)-propyl]-1,3-dihydro-benzoimidazol-2-ylideneamine], the IC50 was < 10 µM.

For `N=c1n(CCCOc2ccc(F)cc2)c2ccccc2n1Cc1ccc(N2CCN(Cc3ccccc3-c3ccccc3)CC2)cc1` [Compound 25, 1-[4-(4-Biphenyl-2-ylmethyl-piperazin-1-yl)-benzyl]-3-[3-(4-fluoro-phenoxy)-propyl]-1,3-dihydro-benzoimidazol-2-ylideneamine], the IC50 was < 10 µM.

Regarding `N=c1n(CCCOc2ccc(F)cc2)c2ccccc2n1Cc1cccc(N2CCN(Cc3ccccc3-c3ccccc3)CC2)c1` [Compound 26, 1-[3-(4-Biphenyl-2-ylmethyl-piperazin-1-yl)-benzyl]-3-[3-(4-fluoro-phenoxy)-propyl]-1,3-dihydro-benzoimidazol-2-ylideneamine], the IC50 was < 10 µM.

In the case of `N=c1n(CCCOc2ccc(F)cc2)c2ccccc2n1Cc1cccc(N2CCN(Cc3ccccc3-c3ccc(Cl)cc3)CC2)c1` [Compound 27, 1-{3-[4-(4′-Chloro-biphenyl-2-ylmethyl)-piperazin-1-yl]-benzyl}-3-[3-(4-fluoro-phenoxy)-propyl]-1,3-dihydro-benzoimidazol-2-ylideneamine], the IC50 is < 10 µM.

As to `N=c1n(CCCOc2ccccc2)c2ccccc2n1Cc1ccc(N2CCN(Cc3ccccc3-c3ccccc3)CC2)cc1` [Compound 28, 1-[4-(4-Biphenyl-2-ylmethyl-piperazin-1-yl)-benzyl]-3-(3-phenoxy-propyl)-1,3-dihydro-benzoimidazol-2-ylideneamine], the IC50 was < 10 µM.

For the compound `N=c1n(CCCOc2ccccc2)c2ccccc2n1Cc1cccc(N2CCN(Cc3ccccc3-c3ccccc3)CC2)c1` [Compound 29, 1-[3-(4-Biphenyl-2-ylmethyl-piperazin-1-yl)-benzyl]-3-(3-phenoxy-propyl)-1,3-dihydro-benzoimidazol-2-ylideneamine], the IC50 is < 10 µM.

For `N=c1n(CCCOc2ccccc2)c2ccccc2n1Cc1ccc(N2CCN(Cc3ccccc3-c3ccc(Cl)cc3)CC2)cc1` [Compound 30, 1-{4-[4-(4′-Chloro-biphenyl-2-ylmethyl)-piperazin-1-yl]-benzyl}-3-(3-phenoxy-propyl)-1,3-dihydro-benzoimidazol-2-ylideneamine], the IC50 is < 10 µM.

Regarding `CC1(C)CCC(c2ccc(Cl)cc2)=C(CN2CCN(c3cccc(Cn4c(=N)n(CCCOc5ccc(F)cc5)c5ccccc54)c3)CC2)C1` [Compound 31, 1-(3-{4-[2-(4-Chloro-phenyl)-5,5-dimethyl-cyclohex-1-enylmethyl]-piperazin-1-yl}-benzyl)-3-[3-(4-fluoro-phenoxy)-propyl]-1,3-dihydro-benzoimidazol-2-ylideneamine], the IC50 is < 10 µM.
